# In paper PMC11053168, “Agonist-selective activation of individual G-proteins by muscarinic receptors” (Scientific Reports, 2024):
# Where two headings read alike, the source gives them in different places.
# Experiments:
# M2 muscarinic receptor = target: T1, M2 muscarinic receptor (Homo sapiens, UniProt P08172); experiment: [3H]NMS competition binding, membranes from CHO cells expressing M2
# T1 construct: membranes
# T1 sequence (P08172 1-466): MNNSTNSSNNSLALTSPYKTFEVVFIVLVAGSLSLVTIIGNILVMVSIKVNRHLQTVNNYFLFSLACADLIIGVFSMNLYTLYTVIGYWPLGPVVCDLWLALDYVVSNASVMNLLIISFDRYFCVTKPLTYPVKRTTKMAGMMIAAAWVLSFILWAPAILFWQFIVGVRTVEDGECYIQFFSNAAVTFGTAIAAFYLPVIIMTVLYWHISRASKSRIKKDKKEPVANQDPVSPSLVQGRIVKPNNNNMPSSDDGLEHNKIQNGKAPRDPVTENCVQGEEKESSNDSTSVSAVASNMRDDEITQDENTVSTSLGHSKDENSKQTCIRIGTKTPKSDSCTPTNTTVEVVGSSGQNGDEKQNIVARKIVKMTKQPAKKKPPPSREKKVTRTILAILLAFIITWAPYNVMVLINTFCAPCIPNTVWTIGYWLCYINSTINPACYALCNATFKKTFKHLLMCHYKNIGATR
# Experimental: Cells were cultured as described previously by Randakova et al.[33]. […] The medium was supplemented with 5 mM butyrate for the last 24 h of culture to increase receptor expression. Cells were washed with (phosphate-buffered saline (PBS), mechanically harvested by scraper and centrifugated 1000 × g for 5 min. Cell pellets were kept at − 80 °C.
# Membranes were prepared as described previously by Randakova et al.[33]. Cells harvested from twenty 100 mm petri dishes (CHO) or 30 ml of cell suspension (Sf9) were suspended in 20 ml of ice-cold incubation medium (100 mM NaCl, 20 mM Na-HEPES, 10 mM MgCl2, pH 7.4) supplemented with 10 mM EDTA and homogenized on ice by two 30‐s strokes using a Polytron homogenizer (Ultra-Turrax; Janke & Kunkel GmbH & Co. KG, IKA-Labortechnik, Staufen, Germany) with a 30 s pause between strokes. Cell homogenates were centrifuged for 5 min at 1000×g to remove whole cells and cell nuclei. The resulting supernatants were centrifuged for 30 min at 30,000×g. Pellets were suspended in a fresh incubation medium, incubated on ice for 30 min, and centrifuged again. The resulting membrane pellets were kept at − 80 °C until assayed within 10 weeks.
# Non-specific binding was determined in the presence of 10 μM unlabelled atropine. Incubations were terminated by filtration through filtration plates multiscreen 96 well Harvest (Merck Millipore) using a Brandel cell harvester (Brandel, Gaithersburg, MD, USA). Filtration plates were dried in a microwave oven, and then 40 μl of liquid scintillator Rotiscint eco plus (Roth) was added. The filtration plates were counted in the Microbeta scintillation counter (PerkinElmer). […] The inhibition constant KI was calculated according to Eq. (2).
# Inhibition constants KI were calculated according to Eq. (2).2 KI=IC50/1+D/KD where IC50 is calculated according to Eq.
# M1 receptor = target: T2, M1 receptor (Homo sapiens, UniProt P11229); parameters: expressed in transfected cells; method as in PMID 31910288; settings: CHO expressing M1; cited from earlier work
# T2 sequence (P11229 1-460): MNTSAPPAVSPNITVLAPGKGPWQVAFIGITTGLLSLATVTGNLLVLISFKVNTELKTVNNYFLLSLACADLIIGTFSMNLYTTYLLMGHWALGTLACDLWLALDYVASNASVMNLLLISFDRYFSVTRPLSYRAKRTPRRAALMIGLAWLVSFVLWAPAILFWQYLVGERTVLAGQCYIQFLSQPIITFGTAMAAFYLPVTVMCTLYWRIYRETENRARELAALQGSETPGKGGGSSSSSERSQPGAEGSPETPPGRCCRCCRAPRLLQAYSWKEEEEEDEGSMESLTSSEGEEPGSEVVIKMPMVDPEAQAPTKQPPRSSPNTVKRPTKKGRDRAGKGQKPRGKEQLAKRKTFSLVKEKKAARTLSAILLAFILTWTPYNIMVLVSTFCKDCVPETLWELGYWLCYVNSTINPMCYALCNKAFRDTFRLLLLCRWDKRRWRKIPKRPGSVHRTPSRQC
# [1] = target: individual subtypes of muscarinic receptors (M1–M5); parameters: method as in PMID 31910288; settings: summary of Table 1 over subtypes; read-out: Affinity; cited from earlier work
# M3 receptor = M3 receptor (Homo sapiens, UniProt P20309); parameters: expressed in transfected cells; method as in PMID 31910288; settings: CHO expressing M3; cited from earlier work
# [2] = tested on: individual subtypes of muscarinic receptors (M1–M5); experiment: [3H]NMS competition binding, summary over subtypes; parameters: species or system human; settings: summary of Table 1 over subtypes
# Experimental: CHO cells stably transfected with the genes of individual subtypes of human muscarinic receptors (M1–M5, wild types) were purchased from Missouri S&T cDNA resource center (Rolla, MO, USA) (https://www.cdna.org/home.php?cat=177). Cells were cultured as described previously by Randakova et al.[33]. Cells were grown to confluence in 75 cm^2 flasks in Dulbecco’s modified Eagle’s medium DMEM (Thermo Fisher Scientific; LOT: 2556745) supplemented with 10% fetal bovine serum and geneticin in concentration 50 µg/ml at 37 °C in a humidified incubator containing 5% CO2. The medium was supplemented with 5 mM butyrate for the last 24 h of culture to increase receptor expression. Cells were washed with (phosphate-buffered saline (PBS), mechanically harvested by scraper and centrifugated 1000 × g for 5 min. Cell pellets were kept at − 80 °C.
# Membranes were prepared as described previously by Randakova et al.[33]. […]
# Non-specific binding was determined in the presence of 10 μM unlabelled atropine. […] The filtration plates were counted in the Microbeta scintillation counter (PerkinElmer). […] The inhibition constant KI was calculated according to Eq. (2). […]
# M3 receptor, sequence (P20309 whole entry): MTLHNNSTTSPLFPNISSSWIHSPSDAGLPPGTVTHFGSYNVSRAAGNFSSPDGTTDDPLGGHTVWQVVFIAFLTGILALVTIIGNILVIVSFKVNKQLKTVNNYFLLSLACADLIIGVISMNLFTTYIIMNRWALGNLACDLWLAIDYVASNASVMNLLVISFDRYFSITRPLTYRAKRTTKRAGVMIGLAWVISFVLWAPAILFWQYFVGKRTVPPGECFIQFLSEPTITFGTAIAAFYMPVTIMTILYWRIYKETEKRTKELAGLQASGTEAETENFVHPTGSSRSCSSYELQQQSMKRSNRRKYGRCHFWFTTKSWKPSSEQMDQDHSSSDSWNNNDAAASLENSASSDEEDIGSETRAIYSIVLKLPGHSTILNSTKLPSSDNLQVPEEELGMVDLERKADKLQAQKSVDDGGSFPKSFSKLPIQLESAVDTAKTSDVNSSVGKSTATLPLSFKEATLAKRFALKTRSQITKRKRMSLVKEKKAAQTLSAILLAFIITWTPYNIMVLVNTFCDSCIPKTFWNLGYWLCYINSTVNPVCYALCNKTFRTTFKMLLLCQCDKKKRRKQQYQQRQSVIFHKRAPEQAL
smiles,measurement,setting,value
c1csc(C[N+]23CCC(CC2)CC3)c1 [JB-8A],Ki,M2 muscarinic receptor,3.24 µM
C[N+]1(Cc2cccs2)CCOCC1 [JB-12-2],Ki,M2 muscarinic receptor,17.4 µM
COC(=O)C1=CCCN(Cc2cccs2)C1 [JB-13-1],Ki,"M2 muscarinic receptor; M2, competition with [3H]NMS, mean ± SD, three experiments, read-out: Binding affinity, negative logarithm of Ki (converted)",23.4 µM
"C[N+]1(Cc2cccs2)CC=CCC1 (centres unmarked) [JR-6, 1-methyl-1-[(thiophen-2-yl)methyl]-1,2,3,6-tetra hydropyridin-1-ium]",IP production,M1 receptor,weak IP production
same,Ki,[1],~10 µM
same,IP production,M3 receptor,marginal response
"C[N+]1(Cc2ccc(Cl)s2)CC=CCC1 (centres unmarked) [PN-152, 1-[(5-chlorothiophen-2-yl)methyl]-1-methyl-1,2,3,6-tetrahydropyridin-1-ium]",Experimental binding affinity relative to JR-6,M2 muscarinic receptor; M2 (Table 1),ten-times higher
same,"Affinity, times higher than JR-6",[2],three to ten
